From the supplement of paper PMC10307832

Experiments:
Test in all cases: relative viability (nuclei count vs DMSO), 5 days (fraction); higher = more cells survive
Tanzisertib + Foretinib = compound: O[C@H]1CC[C@H](Nc2ncc3nc(Nc4c(F)cc(F)cc4F)n([C@H]4CCOC4)c3n2)CC1 [Tanzisertib] + COc1cc2c(Oc3ccc(NC(=O)C4(C(=O)Nc5ccc(F)cc5)CC4)cc3F)ccnc2cc1OCCCN1CCOCC1 [Foretinib] (partner 0.25 µM)
Outline: (§1)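 Relative viability is defined as nuclei in treated wells over nuclei in vehicle wells. Duplicate plates were run and medians reported. Lung cancer cell lines in 1536-well plates were dosed by pin tool one day after seeding, with one drug or with a fixed anchor-drug dose plus five library-drug doses (not always all listed) in √10 steps, and nuclei were counted after 5 days.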

[1] = compound: C1CNCCC1C2=CC(=NN2)C3=CC=NC=C3 + CC(=O)Nc1cccc(-n2c(=O)n(C3CC3)c(=O)c3c(Nc4ccc(I)cc4F)n(C)c(=O)c(C)c32)c1 [Trametinib] (partner 0.02 µM)
Outline: as §1

[2] = compound: C1CNCCC1C2=CC(=NN2)C3=CC=NC=C3 + CS(=O)(=O)N1CCN(Cc2cc3nc(-c4cccc5[nH]ncc45)nc(N4CCOCC4)c3s2)CC1 [Pictilisib] (partner 1 µM)
Outline: as §1

[3] = compound: C[C@@H](N)c1ccc(C(=O)Nc2ccnc3[nH]ccc23)cc1 + C[C@]1(O)C[C@@H](c2nc(-c3ccc4ccc(-c5ccccc5)nc4c3)c3c(N)nccn32)C1 [Linsitinib] (partner 1 µM)
Outline: as §1

Q: What does the source list for UMC-11?
A: relative viability (Tanzisertib + Foretinib; first compound 0.08 µM): 0.976; relative viability (Tanzisertib + Foretinib; first compound 0.253 µM): 1.14; relative viability (Tanzisertib + Foretinib; first compound 0.8 µM): 0.962; relative viability (Tanzisertib + Foretinib; first compound 2.53 µM): 1.01; relative viability (Tanzisertib + Foretinib; first compound 8 µM): 1.18; relative viability ([1]; first compound 0.08 µM): 0.554; relative viability ([1]; first compound 0.8 µM): 0.776; relative viability ([1]; first compound 2.53 µM): 0.796; relative viability ([1]; first compound 8 µM): 0.768; relative viability ([2]; first compound 0.08 µM): 0.698; relative viability ([2]; first compound 0.8 µM): 1.16; relative viability ([2]; first compound 2.53 µM): 0.97; relative viability ([2]; first compound 8 µM): 0.822; relative viability ([3]; first compound 0.04 µM): 1.02; relative viability ([3]; first compound 0.1265 µM): 1.09; relative viability ([3]; first compound 0.4 µM): 1.06; relative viability ([3]; first compound 1.265 µM): 0.958; relative viability ([3]; first compound 4 µM): 0.641
